Laboratory results taken from paper PMC12142043, “Cell-based high-content approach for SARS-CoV-2 neutralization identifies unique monoclonal antibodies and PI3K pathway inhibitors” (Frontiers in Cell and Developmental Biology, 2025).
Read-outs that look alike come from different tables or passages of the source.

Tested on: SARS-CoV-2 (USA-WA1/2020) in Calu-3 cells
Format: cell-based
[1] = high dose (10 µM), Calu-3, 48 h
[2] = low dose (100 nM), Calu-3, 48 h

| Structure (SMILES) | dsRNA signal, AU High [1] | dsRNA signal, AU Low [2] | dsRNA signal, AU High | dsRNA signal, AU Low |
| --- | --- | --- | --- | --- |
| COC(=O)Nc1nc2ccc([S+]([O-])c3ccccc3)cc2[nH]1 (centres unmarked) [Oxfendazole] | 20012.9 AU | 47370.5 AU | – | – |
| COc1cccc(-c2cc(=O)c3ccccc3o2)c1N [PD98059] | 33353.3 AU | 27955.5 AU | – | – |
| COc1cc2ncnc(Nc3cccc(Br)c3)c2cc1OC.Cl [PD153035 hydrochloride] | 1669.4 AU | 28866.3 AU | – | – |
| O=C(NOCC1CC1)c1ccc(F)c(F)c1Nc1ccc(I)cc1Cl [PD184352 (CI-1040)] | 0.0 AU | 41067.4 AU | – | – |
| O=C(NOCC(O)CO)c1cc(Br)c(F)c(F)c1Nc1ccc(I)cc1F (centres unmarked) [PD318088] | 9157.7 AU | 11553.5 AU | – | – |
| O=C(NOC[C@H](O)CO)c1ccc(F)c(F)c1Nc1ccc(I)cc1F [PD0325901] | 5022.8 AU | 48059.9 AU | – | – |
| O=[N+]([O-])c1ccc(-c2nc(-c3ccncc3)c(-c3ccc(F)cc3)[nH]2)cc1 [PD 169316] | 4123.0 AU | 13218.6 AU | – | – |
| CCN(CC)CCCCNc1ncc2cc(-c3cc(OC)cc(OC)c3)c(NC(=O)NC(C)(C)C)nc2n1 [PD 173074] | 6568.6 AU | 3359.6 AU | – | – |
| Cc1cc(CS(=O)(=O)c2ccccc2)cc(OCc2ccc(CN3CCC[C@@H]3CO)cc2)c1 [PF-543] | 28127.6 AU | 66805.4 AU | – | – |
| Cn1cc(-c2[nH]c3cc(NC(=O)[C@H](N)C4CCCCC4)cc4c3c2C=NNC4=O)cn1 [PF-477736] | 45938.3 AU | 24364.8 AU | – | – |
| CN(c1ncccc1CNc1nc(Nc2ccc3c(c2)CC(=O)N3)ncc1C(F)(F)F)S(C)(=O)=O [PF-562271] | 0.0 AU | 690.0 AU | – | – |
| Nc1nccc(-c2c(-c3ccc(F)cc3)ncn2C2CCCCC2)n1 [PF-670462] | 1350.7 AU | 18716.0 AU | – | – |
| OCCn1cc(-c2cnc3nnn(Cc4ccc5ncccc5c4)c3n2)cn1 [PF-04217903] | 9610.7 AU | 2049.9 AU | – | – |
| N#Cc1cccc(-c2c[nH]c3ncnc(N4CCOCC4)c23)c1 [PF-06447475] | 53174.2 AU | 40604.3 AU | – | – |
| CNC(=O)c1ccc(C)c(-n2c(C)cc(OCc3ccc(F)cc3F)c(Br)c2=O)c1 [PH-797804] | 733.9 AU | 57938.0 AU | – | – |
| Cc1[nH]c(/C=C2\C(=O)Nc3ccc(S(=O)(=O)Cc4c(Cl)cccc4Cl)cc32)c(C)c1C(=O)N1CCC[C@@H]1CN1CCCC1 [PHA-665752] | 34815.2 AU | 11571.8 AU | – | – |
| Oc1cccc(-c2nc(N3CCOCC3)c3oc4ncccc4c3n2)c1 [PI-103] | 0.0 AU | 40731.1 AU | – | – |
| Fc1ccc2[nH]ccc2c1-c1nc(N2CCOCC2)c2sc(CN3CCN(CC4CC4)CC3)cc2n1 [PI-3065] | 625.6 AU | 44145.1 AU | – | – |
| Cc1ccc([N+](=O)[O-])cc1S(=O)(=O)N(C)/N=C/c1cnc2ccc(Br)cn12 [PIK-75] | 6934.4 AU | 3754.5 AU | – | – |
| FC(F)(F)c1ccc(CNc2ccc(Cc3c[nH]c4ncccc34)cn2)cc1 [PLX647] | 24285.0 AU | 52941.2 AU | – | – |
| CC(C)n1nc(-c2cc3cc(O)ccc3[nH]2)c2c(N)ncnc21 [PP242] | 7321.2 AU | 32614.7 AU | – | – |
| CC(C)(C)n1nc(-c2ccc(Cl)cc2)c2c(N)ncnc21 [PP 2 (AG 1879)] | 53589.5 AU | 40414.9 AU | – | – |
| CCOC(=O)c1ccc(N2NC(=O)/C(=C/c3ccc([N+](=O)[O-])o3)C2=O)cc1 [PYR-41] | 41809.3 AU | 6659.6 AU | – | – |
| COc1ccc(COc2cc3oc(=O)c4cc(C(C)O)ccc4c3cc2OC)cc1 (centres unmarked) [Palomid 529] | 5778.6 AU | 4358.2 AU | – | – |
| Cc1ccc(Nc2nccc(N(C)c3ccc4c(C)n(C)nc4c3)n2)cc1S(N)(=O)=O [Pazopanib (GW-786034)] | 41143.8 AU | 22671.3 AU | – | – |
| FC(F)(F)c1ccc(CNc2ccc(Cc3c[nH]c4ncc(Cl)cc34)cn2)cn1 [Pexidartinib (PLX3397)] | 64762.3 AU | 40586.0 AU | – | – |
| Oc1cc(O)cc(/C=C/c2ccc(O)c(O)c2)c1 [Piceatannol] | 12025.1 AU | 48262.2 AU | – | – |
| O=C(NC[C@H](O)CO)c1ccncc1Nc1ccc(I)cc1F [Pimasertib (AS-703026)] | 11387.3 AU | 3667.2 AU | – | – |

| Structure (SMILES) | dsRNA signal, AU High [1] | dsRNA signal, AU Low [2] | dsRNA signal, AU High | dsRNA signal, AU Low |
| --- | --- | --- | --- | --- |
| O=C(O)C[C@H](O)C[C@H](O)/C=C/c1c(C2CC2)nc2ccccc2c1-c1ccc(F)cc1 [Pitavastatin Calcium] | 16024.1 AU | 23195.0 AU | – | – |
| O=C(O)C[C@H](O)C[C@H](O)/C=C/c1c(C2CC2)nc2ccccc2c1-c1ccc(F)cc1 [Pitavastatin] | 8150.8 AU | 10215.5 AU | – | – |
| CC1=CC(=O)C(C(C)C)=C/C1=N/OC(=O)c1ccccc1C [Poloxin] | 3268.7 AU | 59035.4 AU | – | – |
| C=CC(=O)N1CCC(Oc2cc3c(Nc4ccc(Cl)c(Cl)c4F)ncnc3cc2OC)CC1 [Poziotinib] | 19439.7 AU | 63934.7 AU | – | – |
| CC(C)[C@H](CO)Nc1nc(Nc2cccc(Cl)c2)c2ncn(C(C)C)c2n1 [Purvalanol A] | 51443.1 AU | 865.0 AU | – | – |
| CC(C)[C@H](CO)Nc1nc(Nc2ccc(C(=O)O)c(Cl)c2)c2ncn(C(C)C)c2n1 [Purvalanol B] | 4137.6 AU | 7805.6 AU | – | – |
| O=c1c(O)c(-c2ccc(O)c(O)c2)oc2cc(O)cc(O)c12 [Quercetin dihydrate] | 25411.6 AU | 6435.1 AU | – | – |
| CC(C)(C)c1cc(NC(=O)Nc2ccc(-c3cn4c(n3)sc3cc(OCCN5CCOCC5)ccc34)cc2)no1 [Quizartinib (AC220)] | 4499.9 AU | 17036.5 AU | – | – |
| COc1cc(Nc2ncc(F)c(Nc3ccc4c(n3)NC(=O)C(C)(C)O4)n2)cc(OC)c1OC [R406 (free base)] | 42129.8 AU | 55638.2 AU | – | – |
| COc1ccc(/C=C(\C#N)c2cccnc2)cc1OC [RG 13022] | 36154.5 AU | 2414.3 AU | – | – |
| O=C(NCc1cccc(O)c1)Nc1nc(-c2ccncc2)cs1 [RKI-1447] | 1722.0 AU | 7250.9 AU | – | – |
| CN1CCN(c2ccc(Nc3cc(-c4cccc(-n5ccc6cc(C7CC7)cc(F)c6c5=O)c4CO)cn(C)c3=O)nc2)CC1 [RN486] | 3432.0 AU | 25024.9 AU | – | – |
| Cc1cn(-c2cc(NC(=O)c3ccc(C)c(Nc4nccc(-c5cnccn5)n4)c3)cc(C(F)(F)F)c2)cn1 [Radotinib(IY-5511)] | 11726.8 AU | 29413.0 AU | – | – |
| CO[C@H]1C[C@@H]2CC[C@@H](C)[C@@](O)(O2)C(=O)C(=O)N2CCCC[C@H]2C(=O)O[C@H]([C@H](C)C[C@@H]2CC[C@@H](O)[C@H](OC)C2)CC(=O)[C@H](C)/C=C(\C)[C@@H](O)[C@@H](OC)C(=O)[C@H](C)C[C@H](C)/C=C/C=C/C=C/1C [Rapamycin (Sirolimus)] | 1745.1 AU | 58744.6 AU | – | – |
| CNC(=O)c1cc(Oc2ccc(NC(=O)Nc3ccc(Cl)c(C(F)(F)F)c3)c(F)c2)ccn1.Cl [Regorafenib hydrochloride] | 724.9 AU | 22021.0 AU | – | – |
| CNC(=O)c1cc(Oc2ccc(NC(=O)Nc3ccc(Cl)c(C(F)(F)F)c3)c(F)c2)ccn1 [Regorafenib] | 93.0 AU | 63322.3 AU | – | – |
| Oc1ccc(/C=C/c2cc(O)cc(O)c2)cc1 [Resveratrol] | 13503.5 AU | 6902.6 AU | – | – |
| c1nc2nc(Nc3ccc(N4CCOCC4)cc3)nc(NC3CCCCC3)c2[nH]1 [Reversine] | – | – | 27234.6 | 49415.3 |
| CO[C@H]1C[C@@H]2CC[C@@H](C)[C@@](O)(O2)C(=O)C(=O)N2CCCC[C@H]2C(=O)O[C@H]([C@H](C)C[C@@H]2CC[C@@H](OP(C)(C)=O)[C@H](OC)C2)CC(=O)[C@H](C)/C=C(\C)[C@@H](O)[C@@H](OC)C(=O)[C@H](C)C[C@H](C)/C=C/C=C/C=C/1C [Ridaforolimus (Deforolimus, MK-8669)] | 23072.2 AU | 31512.5 AU | – | – |
| COc1cc(OC)c(/C=C/S(=O)(=O)Cc2ccc(OC)c(NCC(=O)O)c2)c(OC)c1 [Rigosertib (ON-01910,Estybon)] | 14175.0 AU | 4849.9 AU | – | – |
| O=C1NC(=NCc2cccs2)S/C1=C\c1ccc2ncccc2c1 [Ro 3306] | 2807.1 AU | 25048.4 AU | – | – |
| O=C(/C=C/c1ccc(O)c(O)c1)O[C@H](Cc1ccc(O)c(O)c1)C(=O)O [Rosmarinic acid] | 3864.4 AU | 42457.9 AU | – | – |
| C[C@@H]1COCCN1c1cc(=O)n2c(n1)N(Cc1cncc(Cl)c1)[C@H](C(F)(F)F)CC2 [SAR405] | 1587.9 AU | 23454.9 AU | – | – |
| CCn1c(N)c(C(=O)NC)c(=O)c2ccc(C#C[C@@](C)(O)COC)nc21 [SAR131675] | 44218.5 AU | 34484.3 AU | – | – |
| CN1C/C=C/CCOc2cccc(c2)-c2ccnc(n2)Nc2cccc(c2)C1 [SB1317] | 1210.9 AU | 26680.2 AU | – | – |
| Oc1ccc(-c2nc(-c3ccc(F)cc3)c(-c3ccncc3)[nH]2)cc1 [SB202190 (FHPI)] | 29217.1 AU | 9508.1 AU | – | – |
| Cc1cccc(-c2[nH]c(C(C)(C)C)nc2-c2ccc3nccnc3c2)n1 [SB525334] | 34680.3 AU | 27941.4 AU | – | – |
